The test system of the first assay is COR-L 105. As to the kind of experiment: relative viability (nuclei count vs DMSO), 5 days (fraction); higher = more cells survive. The conditions noted are these: first compound 0.8 µM. Put shortly: (§1)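 Relative viability equals treated-well nuclei counts divided by vehicle-well nuclei counts. Counts came from 4× images of lung cancer cell lines grown in 1536-well plates for 5 days after pin-tool dosing on the day after seeding. Dosing used one drug alone or a fixed anchor-drug dose plus five library-drug doses (not always all listed) in √10 steps, and values are medians of duplicate plates.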
`CCCCCCCCCCCC1=C(O)C(=O)C=C(O)C1=O` [Embelin] + CS(=O)(=O)N1CCN(Cc2cc3nc(-c4cccc5[nH]ncc45)nc(N4CCOCC4)c3s2)CC1 [Pictilisib] (partner 1 µM) yielded a relative viability of 0.484.

The compound `CCCCCCCCCCCC1=C(O)C(=O)C=C(O)C1=O` [Embelin] + C[C@@H](Oc1cc(-c2cnn(C3CCNCC3)c2)cnc1N)c1c(Cl)ccc(F)c1Cl [Crizotinib] (partner 1 µM) returned a relative viability of 0.932.

Staying with this assay, now noted: first compound 2.53 µM.
In the case of `CCCCCCCCCCCC1=C(O)C(=O)C=C(O)C1=O` [Embelin] + O=C(CCCCCCC(=O)Nc1ccccc1)NO [Vorinostat] (partner 1 µM), the relative viability stood at 0.904.

Compound `CCCCCCCCCCCC1=C(O)C(=O)C=C(O)C1=O` [Embelin] + Cc1cc(Nc2cc(N3CCN(C)CC3)nc(Sc3ccc(NC(=O)C4CC4)cc3)n2)n[nH]1 [Tozasertib] (partner 0.1 µM) yielded a relative viability of 0.367.

Regarding `CCCCCCCCCCCC1=C(O)C(=O)C=C(O)C1=O` [Embelin] + COc1cc2c(Oc3ccc(NC(=O)C4(C(=O)Nc5ccc(F)cc5)CC4)cc3F)ccnc2cc1OCCCN1CCOCC1 [Foretinib] (partner 0.25 µM), the relative viability was 1.18.

`CCCCCCCCCCCC1=C(O)C(=O)C=C(O)C1=O` [Embelin] + CS(=O)(=O)N1CCN(Cc2cc3nc(-c4cccc5[nH]ncc45)nc(N4CCOCC4)c3s2)CC1 [Pictilisib] (partner 1 µM) showed a relative viability of 0.424.

On to `CCCCCCCCCCCC1=C(O)C(=O)C=C(O)C1=O` [Embelin] + C[C@@H](Oc1cc(-c2cnn(C3CCNCC3)c2)cnc1N)c1c(Cl)ccc(F)c1Cl [Crizotinib] (partner 1 µM), for which the relative viability turned out to be 0.875.

The assay is the same for the next values; noted with them: first compound 8 µM.
In the case of `CCCCCCCCCCCC1=C(O)C(=O)C=C(O)C1=O` [Embelin] + O=C(CCCCCCC(=O)Nc1ccccc1)NO [Vorinostat] (partner 1 µM), the relative viability was found to be 0.787.

In the case of `CCCCCCCCCCCC1=C(O)C(=O)C=C(O)C1=O` [Embelin] + Cc1cc(Nc2cc(N3CCN(C)CC3)nc(Sc3ccc(NC(=O)C4CC4)cc3)n2)n[nH]1 [Tozasertib] (partner 0.1 µM), the relative viability was found to be 0.35.

Compound `CCCCCCCCCCCC1=C(O)C(=O)C=C(O)C1=O` [Embelin] + COc1cc2c(Oc3ccc(NC(=O)C4(C(=O)Nc5ccc(F)cc5)CC4)cc3F)ccnc2cc1OCCCN1CCOCC1 [Foretinib] (partner 0.25 µM) came in with a relative viability of 0.807.

`CCCCCCCCCCCC1=C(O)C(=O)C=C(O)C1=O` [Embelin] + CS(=O)(=O)N1CCN(Cc2cc3nc(-c4cccc5[nH]ncc45)nc(N4CCOCC4)c3s2)CC1 [Pictilisib] (partner 1 µM) had a relative viability of 0.392.

With `CCCCCCCCCCCC1=C(O)C(=O)C=C(O)C1=O` [Embelin] + C[C@@H](Oc1cc(-c2cnn(C3CCNCC3)c2)cnc1N)c1c(Cl)ccc(F)c1Cl [Crizotinib] (partner 1 µM), the relative viability was 1.04.

The next assay concerns LC-2-ad. Described as above. Conditions: first compound 0.08 µM. Put shortly:
as §1
Consider `CCCCCCCCCCCC1=C(O)C(=O)C=C(O)C1=O` [Embelin] + O=C(CCCCCCC(=O)Nc1ccccc1)NO [Vorinostat] (partner 1 µM), for which the relative viability was 0.759.

Turning to `CCCCCCCCCCCC1=C(O)C(=O)C=C(O)C1=O` [Embelin] + Cc1cc(Nc2cc(N3CCN(C)CC3)nc(Sc3ccc(NC(=O)C4CC4)cc3)n2)n[nH]1 [Tozasertib] (partner 0.1 µM), the relative viability stood at 0.469.

For the compound `CCCCCCCCCCCC1=C(O)C(=O)C=C(O)C1=O` [Embelin] + COc1cc2c(Oc3ccc(NC(=O)C4(C(=O)Nc5ccc(F)cc5)CC4)cc3F)ccnc2cc1OCCCN1CCOCC1 [Foretinib] (partner 0.25 µM), the relative viability was determined as 0.916.

The compound `CCCCCCCCCCCC1=C(O)C(=O)C=C(O)C1=O` [Embelin] + CS(=O)(=O)N1CCN(Cc2cc3nc(-c4cccc5[nH]ncc45)nc(N4CCOCC4)c3s2)CC1 [Pictilisib] (partner 1 µM) gave a relative viability of 0.458.

`CCCCCCCCCCCC1=C(O)C(=O)C=C(O)C1=O` [Embelin] + C[C@@H](Oc1cc(-c2cnn(C3CCNCC3)c2)cnc1N)c1c(Cl)ccc(F)c1Cl [Crizotinib] (partner 1 µM): the relative viability came out at 0.451.

Still in this assay, the particulars now being: first compound 0.8 µM.
In turn, `CCCCCCCCCCCC1=C(O)C(=O)C=C(O)C1=O` [Embelin] + O=C(CCCCCCC(=O)Nc1ccccc1)NO [Vorinostat] (partner 1 µM) came in with a relative viability of 0.695.

`CCCCCCCCCCCC1=C(O)C(=O)C=C(O)C1=O` [Embelin] + Cc1cc(Nc2cc(N3CCN(C)CC3)nc(Sc3ccc(NC(=O)C4CC4)cc3)n2)n[nH]1 [Tozasertib] (partner 0.1 µM) showed a relative viability of 0.421.

Consider `CCCCCCCCCCCC1=C(O)C(=O)C=C(O)C1=O` [Embelin] + COc1cc2c(Oc3ccc(NC(=O)C4(C(=O)Nc5ccc(F)cc5)CC4)cc3F)ccnc2cc1OCCCN1CCOCC1 [Foretinib] (partner 0.25 µM), for which the relative viability was determined as 0.987.

Regarding `CCCCCCCCCCCC1=C(O)C(=O)C=C(O)C1=O` [Embelin] + CS(=O)(=O)N1CCN(Cc2cc3nc(-c4cccc5[nH]ncc45)nc(N4CCOCC4)c3s2)CC1 [Pictilisib] (partner 1 µM), the relative viability is 0.566.

The compound `CCCCCCCCCCCC1=C(O)C(=O)C=C(O)C1=O` [Embelin] + C[C@@H](Oc1cc(-c2cnn(C3CCNCC3)c2)cnc1N)c1c(Cl)ccc(F)c1Cl [Crizotinib] (partner 1 µM) came in with a relative viability of 0.564.

The same assay, now with this note: first compound 2.53 µM.
`CCCCCCCCCCCC1=C(O)C(=O)C=C(O)C1=O` [Embelin] + O=C(CCCCCCC(=O)Nc1ccccc1)NO [Vorinostat] (partner 1 µM): the relative viability stood at 0.716.

For the compound `CCCCCCCCCCCC1=C(O)C(=O)C=C(O)C1=O` [Embelin] + Cc1cc(Nc2cc(N3CCN(C)CC3)nc(Sc3ccc(NC(=O)C4CC4)cc3)n2)n[nH]1 [Tozasertib] (partner 0.1 µM), the relative viability came to 0.52.

Regarding `CCCCCCCCCCCC1=C(O)C(=O)C=C(O)C1=O` [Embelin] + COc1cc2c(Oc3ccc(NC(=O)C4(C(=O)Nc5ccc(F)cc5)CC4)cc3F)ccnc2cc1OCCCN1CCOCC1 [Foretinib] (partner 0.25 µM), the relative viability is 1.13.

`CCCCCCCCCCCC1=C(O)C(=O)C=C(O)C1=O` [Embelin] + CS(=O)(=O)N1CCN(Cc2cc3nc(-c4cccc5[nH]ncc45)nc(N4CCOCC4)c3s2)CC1 [Pictilisib] (partner 1 µM): the relative viability came to 0.618.

Take `CCCCCCCCCCCC1=C(O)C(=O)C=C(O)C1=O` [Embelin] + C[C@@H](Oc1cc(-c2cnn(C3CCNCC3)c2)cnc1N)c1c(Cl)ccc(F)c1Cl [Crizotinib] (partner 1 µM): the relative viability amounted to 0.472.

Staying with this assay, now noted: first compound 8 µM.
Compound `CCCCCCCCCCCC1=C(O)C(=O)C=C(O)C1=O` [Embelin] + O=C(CCCCCCC(=O)Nc1ccccc1)NO [Vorinostat] (partner 1 µM) yielded a relative viability of 0.774.

The compound `CCCCCCCCCCCC1=C(O)C(=O)C=C(O)C1=O` [Embelin] + Cc1cc(Nc2cc(N3CCN(C)CC3)nc(Sc3ccc(NC(=O)C4CC4)cc3)n2)n[nH]1 [Tozasertib] (partner 0.1 µM) came in with a relative viability of 0.441.

For the compound `CCCCCCCCCCCC1=C(O)C(=O)C=C(O)C1=O` [Embelin] + COc1cc2c(Oc3ccc(NC(=O)C4(C(=O)Nc5ccc(F)cc5)CC4)cc3F)ccnc2cc1OCCCN1CCOCC1 [Foretinib] (partner 0.25 µM), the relative viability was determined as 0.861.

Source of the values: the supplement of paper PMC10307832.
